This assay concerns the target T1, PKC-alpha (Homo sapiens, UniProt P17252).
T1 construct: gene PRKCA
Briefly: IMAP-FP kinase activity assay (Proteros selectivity panel), single concentration […], ATP at Km app; […] inhibition. The assay is classed as biochemical.

The inhibition is the share of the control response that was lost under treatment. A lower inhibition goes with a weak effect.

Turning to `C=CC(=O)NC(c1ccccc1)C(C(=O)/C=C/c1cccc(O)c1)C(=O)/C=C/c1cccc(O)c1` (stereo not shown) [compound 3, N-((E)-5-(3-hydroxyphenyl)-2-((E)-3-(3-hydroxyphenyl)acryloyl)-3-oxo-1-phenylpent-4-en-1-yl)acrylamide], the inhibition at 1 µM is 32.8%.

The record behind these values is paper PMC4778904, “The Curcumin Analog C-150, Influencing NF-κB, UPR and Akt/Notch Pathways Has Potent Anticancer Activity In Vitro and In Vivo” (PLoS ONE, 2016).
